Measured values: publication PMC8021118, “Shared recognition of citrullinated tenascin-C peptides by T and B cells in rheumatoid arthritis” (JCI Insight, 2021)
Where two headings read alike, the source gives them in different places. Where a SMILES comes first, the peptide text is derived from it. Where no end group is shown, it is not given here. [ ]: non-standard residue; d: D form. Cit = NC(=O)NCCC[C@H](N)C(=O)O

Key:
[1] = molecular target: HLA-DRB1*04:01 (Homo sapiens, UniProt P01903+P01911, A100K/A169T/F76Y/I96L/K127E/L162R/M171V/N62H/P40V/Q125Y/R42H/S133A/S149N/S66Y/V115G/V209L/W38E); assay: Peptide competition binding assay to HLA-DRB1*04:01; settings: for Binding to HLA-DRB1*04:01 (in words): 15-mer T cell peptides, EC50 cutoff for measurable binding 50 μM
[2] = system: CD4+ T cells in PBMC from HLA-DRB1*04:01+ subjects; assay: In vitro expansion of peptide-specific CD4+ T cells from PBMC and HLA class II tetramer staining; type: cell-based, human; settings: for Responders (% in RA): RA subjects with positive in vitro response (>0.1% of CD4+ T cells tetramer+) of total tested, 10 μg/mL peptide, 14 days, n = 14, TNC44 and TNC59 n = 6; for Immunogenicity: Supplemental Table 1, ability to elicit an immune response in vitro (tetramer staining after expansion); for T cell responses in vitro (in words): noncitrullinated 15-mer versions
Excerpt: TNC is a large protein (2110 amino acids in length) composed of an N-terminal assembly domain, 14.5 epidermal growth factor–like repeats (EGF-L), 8 constant fibronectin type III–like repeats (FNIII), and an additional 9 alternatively spliced FNIII elements, and a C-terminal fibrinogen-like globe (FBG) ([16]). Using a previously described algorithm ([9], [24]), we scanned the entire length of the TNC monomer and identified 64 arg-containing peptides with motifs that would predict to permit binding to HLA-DRB1*04:01 in either their noncitrullinated native form, citrullinated form, or both. Based on these predictions, we synthesized the citrullinated versions of these peptides and tested their ability to bind HLA-DRB1*04:01 and to elicit CD4^+ T cell expansion in vitro. Of the peptides synthesized, 8 cit-TNC peptides bound to HLA-DRB1*04:01 with moderate to high affinity (Table 1). Among these, cit-TNC17, cit-TNC22, cit-TNC45, cit-TNC50, and cit-TNC56 were determined to be the most immunogenic, based on their ability to drive epitope-specific T cell expansion, as measured by HLA class II tetramer (Tmr) staining of peripheral blood mononuclear cells (PBMC) from HLA-DRB1*04:01^+ subjects following 2 weeks of in vitro expansion (Table 1 and Supplemental Figure 1; supplemental material available online with this article; https://doi.org/10.1172/jci.insight.145217DS1).
Recombinant HLA-DRB1*04:01 protein was produced by the BRI Tetramer Core as previously described ([56]). Soluble HLA-DRB1*04:01 monomer was purified from insect cell culture supernatants and biotinylated at a sequence-specific site using biotin ligase (Avidity) prior to dialysis into phosphate storage buffer. The biotinylated monomer was loaded with 0.2 mg/mL of peptide by incubating at 37°C for 72 hours in the presence of 2.5 mg/mL n-octyl β-D-glucopyranoside and 1 mM Pefabloc SC (Sigma-Aldrich). Peptide-loaded monomers were conjugated into Tmrs using fluorescently labeled streptavidin (Invitrogen) for 6–18 hours at room temperature at a molar ratio of 8:1.
Cryopreserved PBMCs from RA and healthy subjects were cultured at 5 × 10^6 cells/well in a 48-well plate in RPMI-1640 + 10% HPS with 10 μg/mL of peptide. IL-2 (Novartis) was added at 325 IU/mL on day 6. On day 14, cells were stained for expression of Tmr-PE, CD25 APC (BD Biosciences), and CD4 FITC (BioLegend) (Supplemental Table 8) and then run on a FACSCanto. The data were analyzed by FlowJo software version 10.

[3] = Supplemental Table 1, citrullinated (X) vs arginine (R) versions, cutoff in the peptide binding assay 50 μM

`CC[C@H](C)[C@H](NC(=O)[C@H](CC(C)C)NC(=O)[C@H](CO)NC(=O)[C@@H](N)C(C)C)C(=O)N[C@@H](CO)C(=O)N[C@@H](CCCNC(N)=O)C(=O)N[C@@H](CCCNC(N)=O)C(=O)NCC(=O)N[C@@H](CC(=O)O)C(=O)N[C@@H](CCSC)C(=O)N[C@@H](CO)C(=O)N[C@@H](CO)C(=O)N[C@@H](CC(N)=O)C(=O)N1CCC[C@H]1C(=O)N[C@@H](C)C(=O)O` [TNC17] (H-VSLIS[Cit][Cit]GDMSSNPA-OH) was tested, and the EC50 [1] was 3.6 µM.
`CC[C@H](C)[C@H](NC(=O)[C@H](CCC(=O)O)NC(=O)[C@H](C)NC(=O)[C@H](CCCNC(N)=O)NC(=O)[C@H](CC(C)C)NC(=O)[C@@H]1CCCN1C(=O)[C@H](CCCCN)NC(=O)[C@@H](N)[C@@H](C)O)C(=O)N[C@H](C(=O)N[C@H](C(=O)N[C@@H](CCC(=O)O)C(=O)N[C@@H](C)C(=O)N[C@@H](CCC(=O)O)C(=O)N1CCC[C@H]1C(=O)N[C@@H](CCC(=O)O)C(=O)O)[C@@H](C)O)C(C)C` [TNC44] (H-TKPL[Cit]AEIVTEAEPE-OH) was tested, and the EC50 [1] was 33.3 µM and the “Responders (% in RA)” value [2] was 33%.
For `CC[C@H](C)[C@H](NC(=O)[C@H](C)NC(=O)[C@@H]1CCCN1C(=O)[C@H](CCC(N)=O)NC(=O)[C@H](Cc1c[nH]c2ccccc12)NC(=O)[C@H](CCCNC(N)=O)NC(=O)[C@H](C)NC(=O)[C@@H](N)CC(C)C)C(=O)N[C@@H](C)C(=O)N[C@H](C(=O)N[C@H](C(=O)N[C@@H](CC(=O)O)C(=O)N[C@@H](CO)C(=O)N[C@@H](Cc1ccc(O)cc1)C(=O)N[C@H](C(=O)O)C(C)C)C(C)C)[C@@H](C)O` [TNC52] (H-LA[Cit]WQPAIATVDSYV-OH), the EC50 [1] was 28.8 µM and the “Responders (% in RA)” value [2] was 33%.
With `CC(C)C[C@H](NC(=O)[C@H](CCC(=O)O)NC(=O)[C@H](Cc1ccc(O)cc1)NC(=O)[C@H](CCC(N)=O)NC(=O)CNC(=O)[C@@H](N)CCC(N)=O)C(=O)N[C@@H](CCCNC(N)=O)C(=O)N[C@H](C(=O)N[C@@H](CC(=O)O)C(=O)N[C@@H](CC(C)C)C(=O)N[C@@H](CCCNC(N)=O)C(=O)N[C@@H](CC(=O)O)C(=O)N[C@@H](Cc1c[nH]cn1)C(=O)NCC(=O)N[C@@H](CCC(=O)O)C(=O)O)C(C)C` [TNC56] (H-QGQYEL[Cit]VDL[Cit]DHGE-OH) the EC50 [1] was 9 µM.
For `CSCC[C@H](NC(=O)[C@@H](N)CO)C(=O)N[C@@H](C)C(=O)N[C@@H](Cc1ccc(O)cc1)C(=O)N[C@@H](Cc1c[nH]cn1)C(=O)N[C@@H](CC(N)=O)C(=O)NCC(=O)N[C@@H](CCCNC(N)=O)C(=O)N[C@@H](CO)C(=O)N[C@@H](Cc1ccccc1)C(=O)N[C@@H](CO)C(=O)N[C@H](C(=O)N[C@@H](Cc1ccccc1)C(=O)N[C@@H](CC(=O)O)C(=O)N[C@@H](CCCCN)C(=O)O)[C@@H](C)O` [TNC59] (H-SMAYHNG[Cit]SFSTFDK-OH), the EC50 [1] was 25 µM and the “Responders (% in RA)” value [2] was 33%.
Compound `CC[C@H](C)[C@H](NC(=O)[C@H](CC(C)C)NC(=O)[C@H](CO)NC(=O)[C@@H](N)C(C)C)C(=O)N[C@@H](CO)C(=O)N[C@@H](CCCNC(=N)N)C(=O)N[C@@H](CCCNC(N)=O)C(=O)NCC(=O)N[C@@H](CC(=O)O)C(=O)N[C@@H](CCSC)C(=O)N[C@@H](CO)C(=O)N[C@@H](CO)C(=O)N[C@@H](CC(N)=O)C(=O)N1CCC[C@H]1C(=O)N[C@@H](C)C(=O)O` [TNC-17RX] (H-VSLISR[Cit]GDMSSNPA-OH) has an EC50 [1, 3] of 4.7 µM.
With `CC[C@H](C)[C@H](NC(=O)[C@H](CC(C)C)NC(=O)[C@H](CO)NC(=O)[C@@H](N)C(C)C)C(=O)N[C@@H](CO)C(=O)N[C@@H](CCCNC(N)=O)C(=O)N[C@@H](CCCNC(=N)N)C(=O)NCC(=O)N[C@@H](CC(=O)O)C(=O)N[C@@H](CCSC)C(=O)N[C@@H](CO)C(=O)N[C@@H](CO)C(=O)N[C@@H](CC(N)=O)C(=O)N1CCC[C@H]1C(=O)N[C@@H](C)C(=O)O` [TNC-17XR] (H-VSLIS[Cit]RGDMSSNPA-OH) the EC50 [1, 3] was > 50 µM.
`CC(C)C[C@H](NC(=O)[C@H](CCCNC(N)=O)NC(=O)[C@H](Cc1ccc(O)cc1)NC(=O)[C@H](CCCNC(=N)N)NC(=O)[C@H](CC(=O)O)NC(=O)[C@@H](N)Cc1ccccc1)C(=O)N[C@@H](CC(N)=O)C(=O)N[C@@H](Cc1ccc(O)cc1)C(=O)N[C@@H](CO)C(=O)N[C@@H](CC(C)C)C(=O)N1CCC[C@H]1C(=O)N[C@H](C(=O)NCC(=O)N[C@@H](CCC(N)=O)C(=O)N[C@@H](Cc1c[nH]c2ccccc12)C(=O)O)[C@@H](C)O` [TNC-22RX] (H-FDRY[Cit]LNYSLPTGQW-OH) was tested, and the EC50 [1, 3] was 0.9 µM and the Immunogenicity [2] was “Yes”.
With `CC(C)C[C@H](NC(=O)[C@H](CCCNC(=N)N)NC(=O)[C@H](Cc1ccc(O)cc1)NC(=O)[C@H](CCCNC(N)=O)NC(=O)[C@H](CC(=O)O)NC(=O)[C@@H](N)Cc1ccccc1)C(=O)N[C@@H](CC(N)=O)C(=O)N[C@@H](Cc1ccc(O)cc1)C(=O)N[C@@H](CO)C(=O)N[C@@H](CC(C)C)C(=O)N1CCC[C@H]1C(=O)N[C@H](C(=O)NCC(=O)N[C@@H](CCC(N)=O)C(=O)N[C@@H](Cc1c[nH]c2ccccc12)C(=O)O)[C@@H](C)O` [TNC-22XR] (H-FD[Cit]YRLNYSLPTGQW-OH) the EC50 [1, 3] was 0.6 µM and the Immunogenicity [2] was “Yes”.
With `CC(C)C[C@H](NC(=O)[C@H](CCC(=O)O)NC(=O)[C@H](Cc1ccc(O)cc1)NC(=O)[C@H](CCC(N)=O)NC(=O)CNC(=O)[C@@H](N)CCC(N)=O)C(=O)N[C@@H](CCCNC(=N)N)C(=O)N[C@H](C(=O)N[C@@H](CC(=O)O)C(=O)N[C@@H](CC(C)C)C(=O)N[C@@H](CCCNC(N)=O)C(=O)N[C@@H](CC(=O)O)C(=O)N[C@@H](Cc1c[nH]cn1)C(=O)NCC(=O)N[C@@H](CCC(=O)O)C(=O)O)C(C)C` [TNC-56RX] (H-QGQYELRVDL[Cit]DHGE-OH) the EC50 [1, 3] was > 50 µM.
`CC(C)C[C@H](NC(=O)[C@H](CCC(=O)O)NC(=O)[C@H](Cc1ccc(O)cc1)NC(=O)[C@H](CCC(N)=O)NC(=O)CNC(=O)[C@@H](N)CCC(N)=O)C(=O)N[C@@H](CCCNC(N)=O)C(=O)N[C@H](C(=O)N[C@@H](CC(=O)O)C(=O)N[C@@H](CC(C)C)C(=O)N[C@@H](CCCNC(=N)N)C(=O)N[C@@H](CC(=O)O)C(=O)N[C@@H](Cc1c[nH]cn1)C(=O)NCC(=O)N[C@@H](CCC(=O)O)C(=O)O)C(C)C` [TNC-56XR] (H-QGQYEL[Cit]VDLRDHGE-OH) was tested, and the EC50 [1, 3] was 8.7 µM.
“CEYEVSLISRRGDMSSNPAC [arg-TNC17, Cys-flanked arginine TNC17 peptide used in ELISA]” was tested, and the “Binding to HLA-DRB1*04:01 (in words)” value [1] was “did not”.
“CPTAQVESFRITYVPITGGC [arg-TNC50, Cys-flanked arginine TNC50 peptide used in ELISA]” was tested, and the “Binding to HLA-DRB1*04:01 (in words)” value [1] was “bound” and the “T cell responses in vitro (in words)” value [2] was “had the ability to elicit T cell responses in vitro”.
In the case of “CQGQYELRVDLRDHGETAFC [arg-TNC56, Cys-flanked arginine TNC56 peptide used in ELISA]”, the “Binding to HLA-DRB1*04:01 (in words)” value [1] is reported as “did not”.
With “CTPLAKFDRYRLNYSLPTGC [arg-TNC22, Cys-flanked arginine TNC22 peptide used in ELISA]” the “Binding to HLA-DRB1*04:01 (in words)” value [1] was “bound” and the “T cell responses in vitro (in words)” value [2] was “had the ability to elicit T cell responses in vitro”.
For “CVSDATPDGFRLSWTADEGC [arg-TNC45, Cys-flanked arginine TNC45 peptide used in ELISA]”, the “Binding to HLA-DRB1*04:01 (in words)” value [1] was “bound” and the “T cell responses in vitro (in words)” value [2] was “had the ability to elicit T cell responses in vitro”.
For FDRYRLNYSLPTGQW [TNC-22RR], the EC50 [1, 3] was 1 µM and the Immunogenicity [2] was “Yes”.
For H-QGQYELRVDLRDHGE-OH [TNC-56RR], the EC50 [1, 3] was > 50 µM.
For H-VSLISRRGDMSSNPA-OH [TNC-17RR], the EC50 [1, 3] was > 50 µM.
With PDGFRLSWTADEGVF [TNC-45R] the EC50 [1, 3] was 5.7 µM and the Immunogenicity [2] was “Yes”.
VESFRITYVPITGGT [TNC-50R] was tested, and the EC50 [1, 3] was 1 µM and the Immunogenicity [2] was “Yes”.
